In ChEMBL document CHEMBL6127139, “Lysine-Targeted Covalent Inhibitors of PI3Kδ Synthesis and Screening by In Situ Interaction Upgradation” (J Med Chem, 2024):
Activity calls are given as the source filed them. No cut-off for these calls is given here.

Experiments:
[1] = target: T1, Phosphatidylinositol 4,5-bisphosphate 3-kinase catalytic subunit delta isoform (Homo sapiens) (UniProt O00329); experiment: Covalent inhibition of PI3Kdelta (unknown origin) using PIP2:3PS as substrate assessed as second order rate constant (Kinact/Ki ratio) incubated upto 180 mins in presence of ATP by ADP-Glo reagent based assay
T1 sequence (whole entry): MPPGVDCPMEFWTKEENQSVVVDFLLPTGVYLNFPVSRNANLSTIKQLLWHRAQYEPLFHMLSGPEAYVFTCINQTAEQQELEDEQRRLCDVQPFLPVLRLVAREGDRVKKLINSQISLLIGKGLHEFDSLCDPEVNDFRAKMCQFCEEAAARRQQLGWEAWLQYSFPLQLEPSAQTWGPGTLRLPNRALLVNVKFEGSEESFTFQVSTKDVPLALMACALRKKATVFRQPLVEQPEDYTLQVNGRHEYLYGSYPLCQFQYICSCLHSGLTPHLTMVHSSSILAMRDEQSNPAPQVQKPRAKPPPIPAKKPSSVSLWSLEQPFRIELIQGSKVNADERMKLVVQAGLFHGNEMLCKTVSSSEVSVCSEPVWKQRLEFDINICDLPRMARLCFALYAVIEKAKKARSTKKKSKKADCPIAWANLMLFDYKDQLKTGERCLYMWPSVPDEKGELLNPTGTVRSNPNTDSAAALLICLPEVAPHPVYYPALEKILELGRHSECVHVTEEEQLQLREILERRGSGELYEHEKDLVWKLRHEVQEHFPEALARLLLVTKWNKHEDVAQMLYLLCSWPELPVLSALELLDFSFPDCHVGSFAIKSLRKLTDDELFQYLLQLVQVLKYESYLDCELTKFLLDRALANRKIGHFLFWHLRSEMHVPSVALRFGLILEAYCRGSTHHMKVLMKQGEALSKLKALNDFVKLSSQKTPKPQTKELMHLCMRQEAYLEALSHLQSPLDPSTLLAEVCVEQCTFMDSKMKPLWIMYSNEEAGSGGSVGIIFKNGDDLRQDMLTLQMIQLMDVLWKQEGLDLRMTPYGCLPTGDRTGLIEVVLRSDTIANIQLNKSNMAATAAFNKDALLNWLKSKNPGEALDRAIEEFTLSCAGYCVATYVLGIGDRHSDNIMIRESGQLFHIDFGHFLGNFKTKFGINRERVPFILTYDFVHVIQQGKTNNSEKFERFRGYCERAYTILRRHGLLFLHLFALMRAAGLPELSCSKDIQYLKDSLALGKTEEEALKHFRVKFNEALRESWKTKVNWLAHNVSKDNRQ

[2] = system: SU-DHL-6; experiment: Induction of apoptosis in human SU-DHL-6 cells assessed as viable cells at 1 uM incubated for 48 hrs by Annexin V-FITC/PI staining based flow cytometric analysis (reference value: 89.81 %); assay type: functional; conditions: read-out: Activity
[3] = system: HCT-116; experiment: Growth inhibition of human HCT-116 cells incubated for 72 hrs by MTT assay; assay type: functional
[4] = system: MCF7; experiment: Growth inhibition of human MCF7 cells incubated for 72 hrs by MTT assay; assay type: functional
[5] = system: SU-DHL-6; experiment: Inhibition of AKT phosphorylation in human SU-DHL-6 cells preincubated for 12 hrs followed by compound washout and measured upto 72 hrs by Western blot analysis; assay type: cell-based
[6] = system: SU-DHL-6; experiment: Induction of apoptosis in human SU-DHL-6 cells assessed as early apoptotic cells at 1 uM incubated for 48 hrs by Annexin V-FITC/PI staining based flow cytometric analysis (reference value: 5.02 %); assay type: functional
[7] = system: SU-DHL-6; experiment: Induction of apoptosis in human SU-DHL-6 cells assessed as late apoptotic cells at 10 uM incubated for 48 hrs by Annexin V-FITC/PI staining based flow cytometric analysis (reference value: 4.12 %); assay type: functional
[8] = system: SU-DHL-6; experiment: Antiproliferative activity against human SU-DHL-6 cells assessed as inhibition of cell viability preincubated for 12 hrs followed by compound washout and measured after 60 hrs by MTT assay; assay type: functional, cell-based
[9] = Growth inhibition of PI3Kdelta-overexpressing human Pfeiffer cells incubated for 72 hrs by MTT assay; assay type: functional
[10] = system: SU-DHL-6; experiment: Induction of apoptosis in human SU-DHL-6 cells assessed as early apoptotic cells at 10 uM incubated for 48 hrs by Annexin V-FITC/PI staining based flow cytometric analysis (reference value: 5.02 %); assay type: functional
[11] = system: SU-DHL-6; experiment: Induction of apoptosis in human SU-DHL-6 cells assessed as necrotic cells at 10 uM incubated for 48 hrs by Annexin V-FITC/PI staining based flow cytometric analysis (reference value: 1.05 %); assay type: functional
[12] = system: SU-DHL-6; experiment: Induction of apoptosis in human SU-DHL-6 cells assessed as viable cells at 10 uM incubated for 48 hrs by Annexin V-FITC/PI staining based flow cytometric analysis (reference value: 89.81 %); assay type: functional; conditions: read-out: Activity
[13] = system: Raji; experiment: Growth inhibition of human Raji cells incubated for 72 hrs by MTT assay; assay type: functional
[14] = Growth inhibition of PI3Kdelta-overexpressing human SU-DHL-6 cells incubated for 72 hrs by MTT assay; assay type: functional
[15] = system: SU-DHL-6; experiment: Induction of apoptosis in human SU-DHL-6 cells assessed as necrotic cells at 1 uM incubated for 48 hrs by Annexin V-FITC/PI staining based flow cytometric analysis (reference value: 1.05 %); assay type: functional
[16] = system: SU-DHL-6; experiment: Antitumor activity against human SU-DHL-6 cells xenografted in male nude mouse assessed as tumor growth inhibition at 5 mg/kg/day, po administered for 14 days relative to control; assay type: functional; conditions: SU-DHL-6, 336 h, time 14 day, read-out: TGI
[17] = system: SU-DHL-6; experiment: Inhibition of AKT phosphorylation in human SU-DHL-6 cells preincubated for 12 hrs followed by compound washout and measured after 24 hrs by Western blot analysis; assay type: cell-based
[18] = system: SU-DHL-6; experiment: Induction of apoptosis in human SU-DHL-6 cells assessed as late apoptotic cells at 1 uM incubated for 48 hrs by Annexin V-FITC/PI staining based flow cytometric analysis (reference value: 4.12 %); assay type: functional
[19] = target: Phosphatidylinositol 4,5-bisphosphate 3-kinase catalytic subunit alpha isoform (Homo sapiens, UniProt P42336); experiment: Inhibition of recombinant PI3Kalpha (unknown origin) using PIP2:3PS as substrate preincubated for 20 mins followed by ATP addition and measured after 1 hrs by ADP-Glo reagent based assay
[20] = Selectivity index, ratio of IC50 for inhibition of recombinant PI3Kgamma (unknown origin) using PIP2:3PS as substrate to IC50 for inhibition of recombinant PI3Kdelta (unknown origin) using PIP2:3PS as substrate
[21] = target: T2, Phosphatidylinositol 4,5-bisphosphate 3-kinase catalytic subunit delta isoform (Homo sapiens, UniProt O00329); experiment: Inhibition of recombinant PI3Kdelta (unknown origin) using PIP2:3PS as substrate preincubated for 20 mins followed by ATP addition and measured after 1 hrs by ADP-Glo reagent based assay
T2 sequence (O00329 whole entry): T1 sequence (whole entry)

[22] = target: Phosphatidylinositol 4,5-bisphosphate 3-kinase catalytic subunit gamma isoform (Homo sapiens, UniProt P48736); experiment: Inhibition of recombinant PI3Kgamma (unknown origin) using PIP2:3PS as substrate preincubated for 20 mins followed by ATP addition and measured after 1 hrs by ADP-Glo reagent based assay
[23] = Chemical reactivity of the compound with N-Boc-Lysine assessed as half-life at 1 uM by HPLC analysis; assay type: physicochemical; conditions: incubation with N-Boc-Lysine
[24] = target: Phosphatidylinositol 4,5-bisphosphate 3-kinase catalytic subunit beta isoform (Homo sapiens, UniProt P42338); experiment: Inhibition of recombinant PI3Kbeta (unknown origin) using PIP2:3PS as substrate preincubated for 20 mins followed by ATP addition and measured after 1 hrs by ADP-Glo reagent based assay
[25] = Selectivity index, ratio of IC50 for inhibition of recombinant PI3Kalpha (unknown origin) using PIP2:3PS as substrate to IC50 for inhibition of recombinant PI3Kdelta (unknown origin) using PIP2:3PS as substrate
[26] = system: SU-DHL-6; experiment: Potency index, ratio of idelalisib GI50 to test compound GI50 for growth inhibition of PI3Kdelta-overexpressing human SU-DHL-6 cells incubated for 72 hrs by MTT assay; assay type: functional
[27] = Selectivity index, ratio of IC50 for inhibition of recombinant PI3Kbeta (unknown origin) using PIP2:3PS as substrate to IC50 for inhibition of recombinant PI3Kdelta (unknown origin) using PIP2:3PS as substrate
[28] = Stability of compound in water/acetonitrile solution incubated for 24 hrs by HPLC analysis; assay type: physicochemical; conditions: buffer
[29] = Stability of compound in PBS at pH 7.4 incubated for 24 hrs at 37 degreeC by HPLC analysis; assay type: physicochemical; conditions: buffer, pH 7.4, 24 h
[30] = Selectivity ratio of GI50 for human HCT-116 cells to GI50 for PI3Kdelta overexpressing human SU-DHL-6; assay type: functional
[31] = target: T1, Phosphatidylinositol 4,5-bisphosphate 3-kinase catalytic subunit delta isoform (Homo sapiens); experiment: Potency index, ratio of idelalisib IC50 to test compound IC50 for inhibition of recombinant PI3Kdelta (unknown origin) using PIP2:3PS as substrate preincubated for 20 mins followed by ATP addition and measured after 1 hrs by ADP-Glo reagent based assay; conditions: time 80.0 min
[32] = system: SU-DHL-6; experiment: Inhibition of AKT phosphorylation in human SU-DHL-6 cells incubated for 24 hrs by Western blot analysis; assay type: cell-based; conditions: dose 10-1000 nM

Sequence of Phosphatidylinositol 4,5-bisphosphate 3-kinase catalytic subunit gamma isoform (P48736 whole entry, canonical isoform): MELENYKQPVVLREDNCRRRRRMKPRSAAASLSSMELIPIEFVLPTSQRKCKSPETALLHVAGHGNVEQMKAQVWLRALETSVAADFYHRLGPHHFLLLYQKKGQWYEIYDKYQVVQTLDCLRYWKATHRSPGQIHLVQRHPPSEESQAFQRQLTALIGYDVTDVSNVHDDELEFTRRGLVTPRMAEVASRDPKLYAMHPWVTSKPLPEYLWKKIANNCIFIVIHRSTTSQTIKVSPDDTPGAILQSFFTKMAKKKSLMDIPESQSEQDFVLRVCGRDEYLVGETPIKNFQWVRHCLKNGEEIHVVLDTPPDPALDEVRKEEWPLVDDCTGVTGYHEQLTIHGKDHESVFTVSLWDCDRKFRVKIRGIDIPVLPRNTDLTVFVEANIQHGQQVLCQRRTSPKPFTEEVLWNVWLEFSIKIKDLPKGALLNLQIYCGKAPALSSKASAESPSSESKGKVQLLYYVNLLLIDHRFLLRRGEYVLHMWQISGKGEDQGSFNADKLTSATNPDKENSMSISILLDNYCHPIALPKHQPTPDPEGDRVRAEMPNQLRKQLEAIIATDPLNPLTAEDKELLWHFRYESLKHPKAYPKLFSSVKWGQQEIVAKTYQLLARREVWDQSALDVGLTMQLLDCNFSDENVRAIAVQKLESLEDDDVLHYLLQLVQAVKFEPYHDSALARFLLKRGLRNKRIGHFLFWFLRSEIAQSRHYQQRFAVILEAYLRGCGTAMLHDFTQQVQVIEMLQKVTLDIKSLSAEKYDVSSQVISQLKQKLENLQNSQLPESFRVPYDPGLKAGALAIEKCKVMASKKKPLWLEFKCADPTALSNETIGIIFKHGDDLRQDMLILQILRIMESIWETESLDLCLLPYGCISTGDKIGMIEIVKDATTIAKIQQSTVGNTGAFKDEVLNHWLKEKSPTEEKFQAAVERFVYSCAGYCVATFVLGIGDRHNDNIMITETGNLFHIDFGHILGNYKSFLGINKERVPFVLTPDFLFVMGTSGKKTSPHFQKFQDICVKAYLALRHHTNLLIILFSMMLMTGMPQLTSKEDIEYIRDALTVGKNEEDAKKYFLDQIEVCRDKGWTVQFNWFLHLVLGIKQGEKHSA
Sequence of Phosphatidylinositol 4,5-bisphosphate 3-kinase catalytic subunit alpha isoform (P42336 whole entry, canonical isoform): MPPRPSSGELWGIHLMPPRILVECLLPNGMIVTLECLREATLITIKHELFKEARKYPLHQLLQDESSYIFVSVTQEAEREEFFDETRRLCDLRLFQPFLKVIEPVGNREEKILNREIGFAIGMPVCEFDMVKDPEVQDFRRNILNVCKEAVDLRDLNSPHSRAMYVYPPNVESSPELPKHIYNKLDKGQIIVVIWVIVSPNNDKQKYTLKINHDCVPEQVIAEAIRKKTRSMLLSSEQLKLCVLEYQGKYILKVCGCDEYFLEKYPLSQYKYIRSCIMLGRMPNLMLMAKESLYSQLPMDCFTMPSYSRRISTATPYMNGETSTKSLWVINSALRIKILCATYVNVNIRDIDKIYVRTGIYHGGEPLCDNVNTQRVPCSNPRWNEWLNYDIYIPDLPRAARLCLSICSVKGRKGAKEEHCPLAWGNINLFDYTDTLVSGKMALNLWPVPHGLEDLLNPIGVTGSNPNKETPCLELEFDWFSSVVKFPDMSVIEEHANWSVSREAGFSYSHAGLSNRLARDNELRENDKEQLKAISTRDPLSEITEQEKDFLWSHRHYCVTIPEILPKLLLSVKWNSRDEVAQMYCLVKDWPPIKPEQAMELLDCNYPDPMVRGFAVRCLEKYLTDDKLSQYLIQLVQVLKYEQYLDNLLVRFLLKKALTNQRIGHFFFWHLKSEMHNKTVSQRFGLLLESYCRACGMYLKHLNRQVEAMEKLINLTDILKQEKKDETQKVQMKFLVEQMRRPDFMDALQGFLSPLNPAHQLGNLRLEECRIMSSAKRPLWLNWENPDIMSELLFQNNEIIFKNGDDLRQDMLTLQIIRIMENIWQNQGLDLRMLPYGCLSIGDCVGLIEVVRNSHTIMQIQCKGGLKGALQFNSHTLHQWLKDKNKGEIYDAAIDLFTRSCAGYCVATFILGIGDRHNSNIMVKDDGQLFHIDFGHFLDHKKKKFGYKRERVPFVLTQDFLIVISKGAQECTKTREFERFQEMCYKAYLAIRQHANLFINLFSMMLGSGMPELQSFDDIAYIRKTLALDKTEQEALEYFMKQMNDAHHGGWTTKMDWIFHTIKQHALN
Sequence of Phosphatidylinositol 4,5-bisphosphate 3-kinase catalytic subunit beta isoform (P42338 whole entry, canonical isoform): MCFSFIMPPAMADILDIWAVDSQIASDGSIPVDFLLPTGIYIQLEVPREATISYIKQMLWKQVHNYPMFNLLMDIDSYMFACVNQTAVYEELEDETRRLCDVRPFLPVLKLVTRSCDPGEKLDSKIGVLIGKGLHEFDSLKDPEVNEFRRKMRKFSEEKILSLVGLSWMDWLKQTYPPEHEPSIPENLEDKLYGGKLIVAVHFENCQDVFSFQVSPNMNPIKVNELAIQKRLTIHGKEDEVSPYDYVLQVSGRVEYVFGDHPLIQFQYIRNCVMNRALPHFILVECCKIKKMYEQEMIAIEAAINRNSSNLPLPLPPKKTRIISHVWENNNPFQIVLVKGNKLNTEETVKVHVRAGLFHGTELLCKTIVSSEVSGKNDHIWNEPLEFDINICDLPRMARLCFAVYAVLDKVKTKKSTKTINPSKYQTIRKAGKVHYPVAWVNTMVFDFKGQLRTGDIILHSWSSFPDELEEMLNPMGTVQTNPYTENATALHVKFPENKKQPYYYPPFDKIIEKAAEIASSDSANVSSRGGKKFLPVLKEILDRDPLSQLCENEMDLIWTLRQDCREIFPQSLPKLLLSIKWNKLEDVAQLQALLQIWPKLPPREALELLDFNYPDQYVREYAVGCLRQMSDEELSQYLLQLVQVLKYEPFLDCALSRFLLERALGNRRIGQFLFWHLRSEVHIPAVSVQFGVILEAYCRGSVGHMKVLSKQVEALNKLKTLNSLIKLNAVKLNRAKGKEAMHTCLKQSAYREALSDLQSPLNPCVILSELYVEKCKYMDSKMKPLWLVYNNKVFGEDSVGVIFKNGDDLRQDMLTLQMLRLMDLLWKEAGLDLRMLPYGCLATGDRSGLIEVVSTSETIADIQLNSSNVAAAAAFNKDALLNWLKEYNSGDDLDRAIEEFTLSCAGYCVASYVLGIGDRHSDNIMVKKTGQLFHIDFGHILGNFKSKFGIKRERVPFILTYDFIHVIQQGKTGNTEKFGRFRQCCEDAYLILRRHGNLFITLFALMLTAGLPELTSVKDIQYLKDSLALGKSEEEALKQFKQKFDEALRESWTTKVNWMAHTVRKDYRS

GI50 [3]	GI50 [4]	GI50 [13]	IC50 [19]	Ratio IC50 [20]	IC50 [21]	IC50 [22]	half-life at 1 µM [23]	IC50 [24]	Ratio IC50 [25]	Ratio IC50 [27]	Compound	inhibition [5]	Activity [8]	GI50 [9]	GI50 [14]	inhibition [17]	other results
–	–	–	–	–	–	–	–	–	–	–	COc1ncc(-c2cc(-c3ncc(CN4CCN(C(C)C)CC4)o3)c3cn[nH]c3c2)cc1C(=O)Oc1ccc(F)cc1	–	–	–	–	–	Ratio [1]: 3.75 10^4/M/s
> 10000 nM	> 10 µM	> 10 µM	–	–	–	–	–	–	–	–	CC[C@H](Nc1ncnc2[nH]cnc12)c1nc2cccc(F)c2c(=O)n1-c1ccccc1 [IDELALISIB]	inactive	inactive	8330 nM	200 nM	inactive	viability at 1 µM [2]: 87%; Activity [6]: 6.76%; Activity [7]: 6.75%; Activity [10]: 13.29%; Activity [11]: 0.6%; viability at 10 µM [12]: 79.4%; Activity [15]: 0.8%; inhibition in vivo at 5 mg/kg/day [16]: 50%; Activity [18]: 3.46%
2140 nM	6.33 µM	6.61 µM	14.1 nM	14	4.45 nM	63.7 nM	55 min	241 nM	3	–	COc1ncc(-c2ccc3ncnc(N[C@H]4CCN(C(=O)C5CCOCC5)C4)c3n2)cc1C(=O)Oc1ccc(F)cc1	Active	Active	97 nM	4 nM	Active	–
1900 nM	> 10 µM	8.2 µM	66 nM	> 1000	0.53 nM	656 nM	144 min	155 nM	124	292	COc1ncc(-c2ccc3ncnc(N[C@H]4CCN(C(=O)C5CCOCC5)C4)c3c2)cc1C(=O)Oc1ccccc1	Active	Active	195 nM	3 nM	Active	RatioGI50 [26]: ~10; Stability [28]: Stable; Stability [29]: Stable; RatioGI50 [30]: 2500; Ratio IC50 [31]: 10; inhibition [32]: Dose-Dependent Effect
1520 nM	> 10 µM	7.59 µM	25.6 nM	92	2.24 nM	208 nM	67 min	30 nM	11	13	COc1ncc(-c2ccc3ncnc(N[C@H]4CCN(C(=O)C5CCOCC5)C4)c3c2)cc1C(=O)Oc1ccc(F)cc1	Active	Active	130 nM	3 nM	Active	–
